According to patent US20240245717A1, “ANTIVIRAL COMPOUNDS, COMPOSITIONS, AND USES THEREOF” (priority 2022, published 2024):
Where “and” joins values, the source holds several entries; their conditions need not be identical. Equal entries are not always repeated.

Legend:
SARS-CoV-2 WAS-Calu-3 = tested on: SARS-CoV-2 WAS-Calu-3; parameters: species or system Golden Syrian Hamsters; conditions: hamster, in vivo
[1] = tested on: Pseudovirus rVSV-SARS-CoV-2; experiment: microbe, parasite or virus in culture; format: cell-based; conditions: for IC50: Pseudovirus, Vero, 24 h, read-out: NT50
[2] = tested on: SARS-CoV-2 isolate Hong Kong/VM20001061/2020; experiment: microbe, parasite or virus in culture; format: cell-based; parameters: % of control: dose or concentration left out as unconfirmed; conditions: 48 hours

| Compound | body weight of infected, treated hamsters (SARS-CoV-2 WAS-Calu-3) | viral titers from harvested lungs (SARS-CoV-2 WAS-Calu-3) | neutralization of SARS CoV-2 infection in vitro [1] | IC50 [1] | % of control [2] | inhibition at 3120 µg/mL ([2]; Severe acute respiratory syndrome coronavirus 2, HEK-293T, 3.12 mg/ml) |
| --- | --- | --- | --- | --- | --- | --- |
| CCCCOP(=O)(O)OC[C@H]1O[C@@H](n2ccc(N)nc2=O)C[C@@H]1OP(=O)(O)OCCCC [Nu-8, ((2R,3S,5R)-5-(4-amino-2-oxopyrimidin-1(2H)-yl)-3-((butoxyoxidophosphor-yl)oxy)tetrahydrofuran-2-yl)methyl butyl phosphate] | began to regain body weight | no virus detected |  |  |  |  |
| CCCCOP(=O)(O)OC[C@H]1O[C@@H](n2cnc3c(N)ncnc32)[C@H](OC)[C@@H]1OP(=O)(O)OCCCC [Nu-11, (2R,3R,4R,5R)-5-(6-aminopurin-9-yl)-3-((butoxy(hydroxy)phosphoryl)oxy)-4-methoxytetrahydrofuran-2-yl)methyl butyl hydrogen phosphate] |  |  | neutralize SARS CoV-2 infection in vitro | 1.15 mg/mL |  |  |
| CCCCOP(=O)(O)OC[C@H]1O[C@@H](n2cc(C)c(=O)[nH]c2=O)C[C@@H]1OP(=O)(O)OCCCC [Nu-3, butyl-phosphate-5′-thymidine-3′-phosphate-butyl] | began to regain body weight | did not show any measurable viral particles, with the exception of one hamster |  |  |  |  |
| CCCCOP(=O)(O)OC[C@H]1O[C@@H](n2ccc(N)nc2=O)[C@H](OC)[C@@H]1OP(=O)(O)OCCCC [Nu-10, ((2R,3R,4R,5R)-5-(4-amino-2-oxopyrimidin-1(2H)-yl)-3-((butoxy(hydroxy)phosphoryl)oxy)-4-methoxytetrahydrofuran-2-yl) methyl butyl hydrogen phosphate] |  |  | neutralize SARS CoV-2 infection in vitro | 21.8 mg/mL | 3% and 8% | 97% |
